Here are results for one molecule from patent EP0840781B1, “METHODS AND DEVICES FOR THE REMOVAL OF PSORALENS FROM BLOOD PRODUCTS” (Cerus Corporation, priority 1995, dated 1996).

SMILES strings stand for the structures.

Data set [1] is described as follows: HPLC analysis of residual S-59 and photoproducts in PC after UVA and 8-hour treatment with RD containing Dowex XUS-43493. It counts as physicochemical. How it is done: Briefly, the assay involved an initial sample preparation which lyses the platelets and solubilizes the S-59 and photoproducts. The supernatant from the sample preparation was then analyzed on a C-18 reverse phase column with a gradient of increasing methanol in KH2PO4 buffer. The major peaks were detected by optical absorbance. […] Samples of the treated PC were then taken and subjected to HPLC for detection of residual S-59 and S-59 photoproducts. Post-incubation levels of photoproducts D, E, and F (S-59) are presented in Table N; photoproducts A, B, C, and G were not detectable by HPLC. Levels of residual photoproducts are average values taken from six independent, photochemically- and RD-treated platelet units. […] The PC was assayed for unbound photoproducts using the HPLC assay discussed above, which quantifies the photoproducts present both within the platelets and in the plasma/PAS III mixture. […] In addition to assaying the complete PC, samples were centrifuged to remove the platelets so that unbound photoproducts in the plasma/PAS III could be analyzed separately. […] To evaluate the efficacy of the RD for reducing the concentration of S-59. platelet samples from the test unit were analyzed for S-59 content by HPLC. […] The concentration of S-59 before and after UVA illumination and the reduction in the concentration of residual S-59 following RD treatment were measured by HPLC analysis. […]

In data set [2] the test system is platelets. Nature of the data set: Platelet morphology score. The class given is cell-based, human. Conditions: T = test unit (150 µM S-59, 3 Joules/cm^2 UVA, RD 8 hours on day 1). How it is done: (§1) For the evaluation of in vitro platelet function, platelet samples were withdrawn from both the control and test units before treatment and after treatment on days 2, 5, and 7. The following parameters were analyzed: pH, pO2, pCO2, bicarbonate concentration, platelet count, morphology, aggregation, platelet shape change, hypotonic shock response, lactate production, glucose consumption, ATP secretion, p-selectin expression, and microvesicle formation. Several of these assays, including pH, morphology score, platelet shape change, and hypotonic shock response, have been reported in the literature to correlate with in- vivo post-transfusion recovery and survival. The Student's paired t-test was used for statistical analysis.

In data set [3] the test system is platelet concentrate. Nature of the data set: pO2, pCO2 and bicarbonate concentration of platelet concentrate. It counts as cell-based, human. The conditions noted are these: T = test unit (150 µM S-59, 3 Joules/cm^2 UVA, RD 8 hours on day 1). How it is done:
In addition to the data summarized in Table E, measurements of pH, pO2, and pCO2 were taken over a five-day storage period. No significant differences between the treated and control units were observed. Finally, it should be noted that these experiments were performed with standard Amberlite™ resins (i.e., resins which were not treated by Supelco, Inc.).
as §1

Take `Cc1oc2c(C)c3oc(=O)cc(C)c3cc2c1COCCN` [Compound 2, 4'-(4-amino-2-oxa)butyl-4,5',8-trimethylpsoralen]: the “% Residual S- 59” value in data set [1] (Post 3 Joule/cm^2 UVA Illumination, of the initial S-59 remained unreacted) stood at 20.5 ± 2.3%. Further, the “µM S-59” value in data set [1] (Pre-Treatment (0 Joule/cm^2), platelet concentrate, HPLC) was 145 ± 10 µM. Also, the “Morphology (Out Of 400)” value in data set [2] (Day 2) is 302±16; in data set [2] (Day 5) it was 290±20; in data set [2] (Day 7) it was 274±12. Moreover, the figures for the Bicarbonate in data set [3] (Day 2), in data set [3] (Day 5) and in data set [3] (Day 7) were 6.3 ± 0.3 mM, 4.8 ± 0.5 mM and 4.2 ± 0.7 mM, respectively. For the same molecule, the pCO2 is on record as 29.2±3.8 mm Hg in data set [3] (Day 2), 23.7±3.5 mm Hg in data set [3] (Day 5) and 20.7±2.4 mm Hg in data set [3] (Day 7). The pO2 in data set [3] (Day 2) was 68.3±19.4 mm Hg; in data set [3] (Day 5) it was 84.8±22.5 mm Hg; in data set [3] (Day 7), 88.8±20.2 mm Hg.
